Each structure is given as a SMILES string. Several values for one entry are separate records, joined by “and”; a condition that tells them apart may be missing. Equal entries are not always repeated. Where two headings read alike, the source gives them in different places.

The target of assay [1] is T1, 5-HT2A (Homo sapiens (Human), UniProt P28223). The experiment in a line: Radioligand binding assay, [^3H]5-HT competition, 5-HT2A. To be noted: read-out: 5-HT2A serotonin binding Ki value.
Assay [2] has as its target T1, 5-HT2A. The experiment in a line: HTRF IP-One antagonist assay, 5-HT2A.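 Further: clonal line with low receptor density (about 50–70 fmol/mg), 10-point dose-response from 10 µM in 5-fold steps, HTRF detection after 1 hr, triplicate points.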 Type of assay: cell-based. To be noted: HEK293 cells stably expressing receptor, inositol phosphate accumulation, 80 nM 5-HT in Assay Buffer.
The next assay deals with 5-HT2B (Homo sapiens (Human), UniProt P41595). Briefly: HTRF IP-One antagonist assay, 5-HT2B.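 Further: clonal HEK293 line with low 5-HT2B expression (estimated 150-200 fmol/mg by radioligand binding), IP-One HTRF readout, 10-point curves from 10 µM in 5-fold steps, triplicate points.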 The format is cell-based. To be noted: HEK293 cells stably expressing receptor, inositol phosphate accumulation, 80 nM 5-HT in Assay Buffer. (In TR-FRET formats the signal depends on donor and acceptor labels being close together.)
5-HT2B, sequence (P41595 whole entry): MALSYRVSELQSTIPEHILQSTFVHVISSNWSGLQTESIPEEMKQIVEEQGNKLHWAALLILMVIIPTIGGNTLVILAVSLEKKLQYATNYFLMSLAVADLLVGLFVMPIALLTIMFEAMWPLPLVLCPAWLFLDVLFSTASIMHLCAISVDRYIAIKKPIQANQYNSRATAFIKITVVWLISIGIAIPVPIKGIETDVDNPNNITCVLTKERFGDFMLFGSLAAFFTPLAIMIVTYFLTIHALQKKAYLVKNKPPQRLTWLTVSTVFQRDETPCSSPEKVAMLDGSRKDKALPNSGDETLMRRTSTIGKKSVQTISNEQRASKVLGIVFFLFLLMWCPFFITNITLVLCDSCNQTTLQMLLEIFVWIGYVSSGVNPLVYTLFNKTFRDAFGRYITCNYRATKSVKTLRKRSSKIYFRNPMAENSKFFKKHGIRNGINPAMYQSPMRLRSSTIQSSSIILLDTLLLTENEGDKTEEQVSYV
Another assay has as its target 5-HT2C (Homo sapiens (Human), UniProt P28335). Briefly: HTRF IP-One antagonist assay, 5-HT2C.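 Further: clonal HEK293 line with low 5-HT2C density (10–20 fmol/mg), HTRF detection of IP-One, 10-point dose curves from 10 µM in 5-fold steps, triplicate points.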 The format is cell-based. To be noted: HEK293 cells stably expressing receptor, inositol phosphate accumulation, 80 nM 5-HT in Assay Buffer.
Where [3] appears, read: [^3H]5-HT radioligand, membranes of HEK293 cells expressing recombinant 5-HT2A, Ki from IC50 by Cheng-Prusoff.

5-HT2C, sequence (P28335 33-458): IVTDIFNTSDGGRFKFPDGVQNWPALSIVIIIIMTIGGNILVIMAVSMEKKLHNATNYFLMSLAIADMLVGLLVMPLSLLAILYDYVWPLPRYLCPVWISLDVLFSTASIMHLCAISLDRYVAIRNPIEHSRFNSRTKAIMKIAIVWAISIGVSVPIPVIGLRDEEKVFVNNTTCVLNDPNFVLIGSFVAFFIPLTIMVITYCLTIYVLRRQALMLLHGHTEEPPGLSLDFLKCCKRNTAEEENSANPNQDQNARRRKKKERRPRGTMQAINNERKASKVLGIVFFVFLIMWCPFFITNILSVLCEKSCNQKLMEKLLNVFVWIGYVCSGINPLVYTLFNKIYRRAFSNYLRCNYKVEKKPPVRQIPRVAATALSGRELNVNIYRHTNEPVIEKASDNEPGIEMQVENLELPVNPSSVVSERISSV
T1 sequence (P28223 whole entry): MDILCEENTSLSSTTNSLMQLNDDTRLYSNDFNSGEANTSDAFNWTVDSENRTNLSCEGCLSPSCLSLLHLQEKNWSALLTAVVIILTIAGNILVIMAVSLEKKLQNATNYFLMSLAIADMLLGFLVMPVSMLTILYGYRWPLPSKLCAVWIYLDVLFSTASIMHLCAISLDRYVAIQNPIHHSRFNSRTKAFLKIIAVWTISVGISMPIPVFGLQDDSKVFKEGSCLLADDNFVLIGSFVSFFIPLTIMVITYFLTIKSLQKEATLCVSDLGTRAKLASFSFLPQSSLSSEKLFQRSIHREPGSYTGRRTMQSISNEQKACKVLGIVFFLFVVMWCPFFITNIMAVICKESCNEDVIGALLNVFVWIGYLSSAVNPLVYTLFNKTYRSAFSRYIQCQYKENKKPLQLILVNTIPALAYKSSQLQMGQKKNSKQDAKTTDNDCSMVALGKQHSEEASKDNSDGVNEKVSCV

As for `Cc1ncnc(C)c1-c1cc(NC(=O)c2c(F)cnn2C)ccc1OCCN1CCCC1` [Compound 290, N-[3-(4,6-dimethylpyrimidin-5-yl)-4-(2-pyrrolidin-1-ylethoxy)phenyl]-4-fluoro-2-methyl-pyrazole-3-carboxamide], the Ki at 5-HT2A [1] (setting [3]) was 3.86 nM. The values for the half-inhibitory concentration (IC50) on 5-HT2A [2], against 5-HT2B and on 5-HT2C were 7.36 nM, 100000 nM and 100000 nM, respectively.

As for `CCOC1CC1C(=O)Nc1ccc(OCCN2CCCC2)c(-c2c(C)ncnc2C)c1` (stereo not drawn) [Compound 291, N-(3-(4,6-dimethylpyrimidin-5-yl)-4-(2-(pyrrolidin-1-yl)ethoxy)phenyl)-2-ethoxycyclopropane-1-carboxamide], the Ki at 5-HT2A [1] (setting [3]) is 5.04 nM and 15.5 nM. In addition, the IC50 is 9.75 nM against 5-HT2A [2], 100000 nM against 5-HT2B and 100000 nM against 5-HT2C.

With `Cc1ncnc(C)c1-c1cc(NC(=O)C2(CF)CC2)ccc1OCCN1CCCC1` [Compound 293, N-(3-(4,6-dimethylpyrimidin-5-yl)-4-(2-(pyrrolidin-1-yl)ethoxy)phenyl)-1-(fluoromethyl)cyclopropane-1-carboxamide], the inhibitory constant (Ki) on 5-HT2A [1] (setting [3]) came to 8.56 nM. In addition, the IC50 on 5-HT2A [2] came to 15.9 nM; against 5-HT2B, 9370 nM; against 5-HT2C it was 100000 nM.

With `Cc1ncnc(C)c1-c1cc(NC(=O)c2ccnn2C)ccc1OCCN1CCC1` [Compound 304, N-[4-[2-(azetidin-1-yl)ethoxy]-3-(4,6-dimethylpyrimidin-5-yl)phenyl]-2-methyl-pyrazole-3-carboxamide], the Ki at 5-HT2A [1] (setting [3]) was determined as 7.25 nM. For the same compound, the 50% inhibitory concentration (IC50) at 5-HT2A [2] is 8.86 nM; at 5-HT2B it was 100000 nM; against 5-HT2C it was 100000 nM.

Turning to `Cc1ncnc(C)c1-c1cc(NC(=O)C2(F)CC2)ccc1OCCN1CCC1` [Compound 305, N-(4-(2-(azetidin-1-yl)ethoxy)-3-(4,6-dimethylpyrimidin-5-yl)phenyl)-1-fluorocyclopropane-1-carboxamide], the Ki on 5-HT2A [1] (setting [3]) stood at 2.61 nM. The half-maximal inhibitory concentration (IC50) was found to be 4.44 nM at 5-HT2A [2], 100000 nM on 5-HT2B and 100000 nM on 5-HT2C.

Take `Cc1ncsc1CC(=O)Nc1ccc(OCCN2CCC2)c(-c2c(C)ncnc2C)c1` [Compound 307, N-(4-(2-(azetidin-1-yl)ethoxy)-3-(4,6-dimethylpyrimidin-5-yl)phenyl)-2-(4-methylthiazol-5-yl)acetamide]: at 5-HT2A [1], the inhibition constant (Ki) amounted to 5.89 nM. The half-inhibitory concentration (IC50) against 5-HT2A [2] was 9.84 nM; on 5-HT2B, at least 100000 nM; on 5-HT2C it was 100000 nM.

`Cc1ncnc(C)c1-c1cc(NC(=O)c2ccccc2)ccc1OCCN1CCC1` [Compound 308, N-(4-(2-(azetidin-1-yl)ethoxy)-3-(4,6-dimethylpyrimidin-5-yl)phenyl)benzamide]: on 5-HT2A [1] (setting [3]), the inhibitory constant (Ki) is 3.28 nM. Further, the 50% inhibitory concentration (IC50) was determined as 14.7 nM against 5-HT2A [2], 100000 nM at 5-HT2B and 100000 nM on 5-HT2C.

As for `Cc1ncnc(C)c1-c1cc(NC(=O)c2ccc(F)cc2)ccc1OCCN1CCC1` [Compound 309, N-(4-(2-(azetidin-1-yl)ethoxy)-3-(4,6-dimethylpyrimidin-5-yl)phenyl)-4-fluorobenzamide], the Ki at 5-HT2A [1] (setting [3]) worked out at 1.71 nM. Moreover, the values for the IC50 at 5-HT2A [2], at 5-HT2B and at 5-HT2C were 6.32 nM, 806 nM and 100000 nM, respectively.

With `COc1cccc(C(=O)Nc2ccc(OCCN3CCC3)c(-c3c(C)ncnc3C)c2)c1` [Compound 310, N-(4-(2-(azetidin-1-yl)ethoxy)-3-(4,6-dimethylpyrimidin-5-yl)phenyl)-3-methoxybenzamide], on 5-HT2A [1] (setting [3]), the Ki turned out to be 1.58 nM. Also, the results for the IC50 at 5-HT2A [2], on 5-HT2B and on 5-HT2C were 3.31 nM, 1910 nM and 100000 nM, respectively.

On to `Cc1ncnc(C)c1-c1cc(NC(=O)Cc2cncc(F)c2)ccc1OCCN1CCC1` [Compound 314, N-(4-(2-(azetidin-1-yl)ethoxy)-3-(4,6-dimethylpyrimidin-5-yl)phenyl)-2-(5-fluoropyridin-3-yl)acetamide], for which the inhibition constant (Ki) on 5-HT2A [1] (setting [3]) turned out to be 5.42 nM. In addition, the results for the IC50 on 5-HT2A [2], against 5-HT2B and against 5-HT2C were 15.3 nM, 100000 nM and 100000 nM, respectively.

In the case of `Cc1ncnc(C)c1-c1cc(NC(=O)c2c(F)cnn2C)ccc1OCCN1CCC1` [Compound 316, N-(4-(2-(azetidin-1-yl)ethoxy)-3-(4,6-dimethylpyrimidin-5-yl)phenyl)-4-fluoro-1-methyl-1H-pyrazole-5-carboxamide], the Ki at 5-HT2A [1] (setting [3]) turned out to be 4.98 nM. Further, the half-maximal inhibitory concentration (IC50) against 5-HT2A [2] was found to be 6.99 nM; on 5-HT2B, 3190 nM; on 5-HT2C, 100000 nM.

`COc1ccc(C(=O)Nc2ccc(OCCN3CCC3)c(-c3c(C)ncnc3C)c2)cc1` [Compound 318, N-(4-(2-(azetidin-1-yl)ethoxy)-3-(4,6-dimethylpyrimidin-5-yl)phenyl)-4-methoxybenzamide]: the inhibition constant (Ki) on 5-HT2A [1] (setting [3]) was 4.09 nM. Besides, the IC50 on 5-HT2A [2] came out at 16.8 nM; against 5-HT2B, 4500 nM; at 5-HT2C, 100000 nM.

Turning to `Cc1ncnc(C)c1-c1cc(NC(=O)c2ccccc2F)ccc1OCCN1CCC1` [Compound 319, N-(4-(2-(azetidin-1-yl)ethoxy)-3-(4,6-dimethylpyrimidin-5-yl)phenyl)-2-fluorobenzamide], at 5-HT2A [1] (setting [3]), the Ki was 3.62 nM. The concentration for half-maximal inhibition (IC50) is 14.3 nM against 5-HT2A [2], 2360 nM against 5-HT2B and 100000 nM against 5-HT2C.

As for `Cc1ncnc(C)c1-c1cc(NC(=O)c2cccc(C#N)c2)ccc1OCCN1CCC1` [Compound 325, N-(4-(2-(azetidin-1-yl)ethoxy)-3-(4,6-dimethylpyrimidin-5-yl)phenyl)-3-cyanobenzamide], at 5-HT2A [1] (setting [3]), the Ki worked out at 1.7 nM. Further, the IC50 against 5-HT2A [2] came out at 8.54 nM; against 5-HT2B, 2890 nM; on 5-HT2C, 100000 nM.

Consider `Cc1ncnc(C)c1-c1cc(NC(=O)C2CC2)ccc1OCCN1CCC1` [Compound 344, N-(4-(2-(azetidin-1-yl)ethoxy)-3-(4,6-dimethylpyrimidin-5-yl)phenyl)cyclopropanecarboxamide], for which, on 5-HT2A [1] (setting [3]), the Ki is 6.53 nM. The IC50 against 5-HT2A [2] worked out at 10.2 nM; at 5-HT2B it was 1210 nM; on 5-HT2C, 100000 nM.

Regarding `COC1CCN(CCOc2ccc(NC(=O)C3CC3)cc2-c2c(C)ncnc2C)CC1` [Compound 351, N-(3-(4,6-dimethylpyrimidin-5-yl)-4-(2-(4-methoxypiperidin-1-yl)ethoxy)phenyl)cyclopropanecarboxamide], the inhibition constant (Ki) on 5-HT2A [1] (setting [3]) turned out to be 4.56 nM. For the same compound, the IC50 is 7.03 nM against 5-HT2A [2], 100000 nM against 5-HT2B and 100000 nM at 5-HT2C.

`CO[C@@H]1CCN(CCOc2ccc(NC(=O)C3CC3)cc2-c2c(C)ncnc2C)C1` [Compound 353, (R)—N-(3-(4,6-dimethylpyrimidin-5-yl)-4-(2-(3-methoxypyrrolidin-1-yl)ethoxy)phenyl)cyclopropanecarboxamide]: at 5-HT2A [1] (setting [3]), the inhibition constant Ki was 4.06 nM. In addition, the IC50 against 5-HT2A [2] came out at 24.8 nM; against 5-HT2B it was 100000 nM; on 5-HT2C it was 100000 nM.

In the case of `COCCNCCOc1ccc(NC(=O)C2CC2)cc1-c1c(C)ncnc1C` [Compound 361, N-(3-(4,6-dimethylpyrimidin-5-yl)-4-(2-((2-methoxyethyl)amino)ethoxy)phenyl)cyclopropanecarboxamide], the Ki at 5-HT2A [1] (setting [3]) came out at 4.33 nM. For the same compound, the IC50 is 9.27 nM against 5-HT2A [2], 100000 nM against 5-HT2B and 100000 nM against 5-HT2C.

Consider `Cc1ncnc(C)c1-c1cc(NC(=O)C2CC2)ccc1OC1CNC1` [Compound 396, N-[4-(azetidin-3-yloxy)-3-(4,6-dimethylpyrimidin-5-yl)phenyl]cyclopropanecarboxamide], for which the Ki at 5-HT2A [1] (setting [3]) amounted to 5.93 nM. The IC50 on 5-HT2A [2] amounted to 50.5 nM; at 5-HT2B, 100000 nM; on 5-HT2C, 100000 nM.

On to `Cc1ncnc(C)c1-c1cc(NC(=O)C2(F)CC2)ccc1OC1CNC1` [Compound 398, N-(4-(azetidin-3-yloxy)-3-(4,6-dimethylpyrimidin-5-yl)phenyl)-1-fluorocyclopropane-1-carboxamide], for which the Ki at 5-HT2A [1] (setting [3]) amounted to 6.26 nM. Besides, the half-maximal inhibitory concentration (IC50) on 5-HT2A [2] is 33.8 nM; against 5-HT2B, 100000 nM; on 5-HT2C, 100000 nM.

With `Cc1ncnc(C)c1-c1cc(NC(=O)c2ccccc2)ccc1OC1CNC1` [Compound 400, N-(4-(azetidin-3-yloxy)-3-(4,6-dimethylpyrimidin-5-yl)phenyl)benzamide], at 5-HT2A [1] (setting [3]), the Ki came to 4.2 nM. For the same compound, the concentration for half-maximal inhibition (IC50) at 5-HT2A [2] is 38.6 nM; at 5-HT2B it was 100000 nM; against 5-HT2C, 100000 nM.

As for `Cc1ncnc(C)c1-c1cc(NC(=O)[C@@H]2C[C@H]2F)ccc1O[C@@H]1CCCNC1` [Compound 409, (1S,2R)—N-(3-(4,6-dimethylpyrimidin-5-yl)-4-(((R)-piperidin-3-yl)oxy)phenyl)-2-fluorocyclopropane-1-carboxamide], on 5-HT2A [1] (setting [3]), the inhibition constant (Ki) is 6.67 nM. Further, the 50% inhibitory concentration (IC50) was found to be 18.9 nM against 5-HT2A [2], 2920 nM at 5-HT2B and 100000 nM against 5-HT2C.

With `Cc1ncnc(C)c1-c1cc(NC(=O)C2(F)CC2)ccc1OC[C@H]1CCCCN1` [Compound 438, N-[3-(4,6-dimethylpyrimidin-5-yl)-4-[[(2R)-2-piperidyl]methoxy]phenyl]-1-fluoro-cyclopropanecarboxamide], the Ki on 5-HT2A [1] (setting [3]) stood at 9.18 nM. In addition, the half-maximal inhibitory concentration (IC50) against 5-HT2A [2] was 16.4 nM; against 5-HT2B it was 100000 nM; against 5-HT2C, 100000 nM.

As to `Cc1ncnc(C)c1-c1cc(NC(=O)C2(F)CCC2)ccc1OC[C@H]1CCCCN1` [Compound 444, (R)—N-(3-(4,6-dimethylpyrimidin-5-yl)-4-(piperidin-2-ylmethoxy)phenyl)-1-fluorocyclobutane-1-carboxamide], the inhibition constant (Ki) at 5-HT2A [1] (setting [3]) was found to be 4.93 nM. Moreover, the half-maximal inhibitory concentration (IC50) against 5-HT2A [2] is 11.8 nM; against 5-HT2B it was 100000 nM; at 5-HT2C, 100000 nM.

In general, Ki refers to the dissociation constant of the complex between target and ligand, obtained from inhibition or displacement. The IC50 is the concentration that inhibits the measured activity by half. A lower IC50 goes with inhibition by little substance.
